According to US20050009103A1, “Methods of precise molecular-level determination of ligand-receptor interactions and designing selective drug compounds based on said interactions” (priority 2003, published 2005):
Read-outs that look alike come from different tables or passages of the source.

How the values were obtained:
[1] = test system: Mouse muscle embryonic nAChR, 4,5,6,7-F4-Trp at α149, Leu9′Ser mutation in M2 of the β subunit; assay: Two-electrode voltage clamp of Xenopus oocytes expressing nAChR, F4-Trp at α149; assay type: cell-based
Description: (§1) Unnatural amino acids were incorporated into the nAChR using in vivo nonsense suppression methods, and mutant receptors were evaluated electrophysiologically (Dougherty, D. A. (2000) Curr. Opin. Chem. Biol. 4:645-652).
(§2) In studies of weak agonists and/or receptors with diminished binding capability, it is necessary to introduce another mutation that independently decreases EC50. This was accomplished via a Leu-to-Ser mutation in the β subunit at a site known as 9′ in the M2 transmembrane region of the receptor. This M2-β9′ site is almost 50 Å from the binding site, and previous work has shown that a Leu9′Ser mutation lowers the EC50 by a factor of roughly 10 without altering trends in EC50 values (Beene, D. L., et al. (2002) Biochem. 41:10262-9; and Kearney, P. C., et al. (1996) Mil. Pharmacol. 50:1401-1412). […] It is important to note that the EC50 value is not a binding constant, but a composite of equilibria for both binding and gating.
Stage VI oocytes of Xenopus laevis were employed. Oocyte recordings were made 24 to 48 h post injection in two-electrode voltage clamp mode using the OpusXpress™ 6000A (Axon Instruments, Union City, Calif.). Oocytes were superfused with Ca^2+-free ND96 solution at flow rates of 1 ml/min, 4 ml/min during drug application and 3 ml/min during wash. Holding potentials were −60 mV. Data were sampled at 125 Hz and filtered at 50 Hz. […]

[2] = test system: Mouse muscle embryonic nAChR, Tah α150 (ester carbonyl of Trp α149), Leu9′Ser mutation in M2 of the β subunit; assay type: cell-based
Description: as §1, §2
(§3) To evaluate this possibility, the backbone amide at this position was converted to an ester by replacing Thr α150 with the analog α-hydroxy threonine (Tah) using the nonsense suppression methodology (FIG. 9a). Converting an amide carbonyl to an ester carbonyl weakens the hydrogen bonding ability of the oxygen, an effect that has been estimated to be worth ˜[…] (Koh, J. T., et al. (1997) Biochem. 36:11314-22).
(§4) Stage VI oocytes of Xenopus laevis were employed. Oocyte recordings were made 24 to 48 h post injection in two-electrode voltage clamp mode using the OpusXpress™ 6000A (Axon Instruments, Union City, Calif.). Oocytes were superfused with Ca^2+-free ND96 solution at flow rates of 1 ml/min, 4 ml/min during drug application and 3 ml/min during wash. Holding potentials were −60 mV. Data were sampled at 125 Hz and filtered at 50 Hz. Drug applications were 15 s in duration. […] All drugs were prepared in sterile ddi water for dilution into calcium-free ND96. Dose-response data were obtained for a minimum of 10 concentrations of agonists and for a minimum of 7 cells. Dose-response relations were fitted to the Hill equation to determine EC50 and Hill coefficient. EC50 for individual oocytes were averaged to obtain the reported values.
(§5) Synthetic amino acids and α-hydroxy acids were conjugated to the dinucleotide dCA and ligated to truncated 74 nt tRNA as previously described in England, P. M., et al. (1999) supra; and Nowak, M. W., et al. (1998) Methods Enzymol. 293:504-529. Deprotection of amino acyl tRNA was carried out by photolysis immediately prior to co-injection with mRNA, as described in Nowak M. W., et al. (1998) supra; and Li, L. T., et al. (2001) Chem. Biol. 8:47-58. Typically, 25 ng of tRNA were injected per oocyte along with mRNA in a total volume of 50 nl/cell. mRNA was prepared by in vitro runoff transcription using the Ambion (Austin, Tex.) mMessage mMachine kit. Mutation to the amber stop codon at the site of interest was accomplished by standard means and was verified by sequencing through both strands. For nAChR suppression, a total of 4.0 ng of mRNA was injected in the subunit ratio of 10:1:1:1 α:β:γ:δ. In all cases, the β subunit contained a Leu9′Ser mutation, as discussed above. Mouse muscle embryonic nAChR in the pAMV vector was used. In addition, the α subunits contain an HA epitope in the M3-M4 cytoplasmic loop for biochemical studies. […] As a negative control for suppression, truncated 74 nt or truncated tRNA ligated to dCA was co-injected with mRNA in the same manner as fully charged tRNA. […] The positive control for suppression involved wild-type recovery by co-injection with 74 nt tRNA ligated to dCA-Thr or dCA-Trp.

[3] = target: Mouse muscle embryonic nAChR, Thr α150, Leu9′Ser mutation in M2 of the β subunit (Mus musculus, UniProt P02716+P04756+P04760+P09690, L285S); assay: cell-based
Mouse muscle embryonic nAChR, Thr α150, Leu9′Ser mutation in M2 of the β subunit, sequence (P04756 21-457): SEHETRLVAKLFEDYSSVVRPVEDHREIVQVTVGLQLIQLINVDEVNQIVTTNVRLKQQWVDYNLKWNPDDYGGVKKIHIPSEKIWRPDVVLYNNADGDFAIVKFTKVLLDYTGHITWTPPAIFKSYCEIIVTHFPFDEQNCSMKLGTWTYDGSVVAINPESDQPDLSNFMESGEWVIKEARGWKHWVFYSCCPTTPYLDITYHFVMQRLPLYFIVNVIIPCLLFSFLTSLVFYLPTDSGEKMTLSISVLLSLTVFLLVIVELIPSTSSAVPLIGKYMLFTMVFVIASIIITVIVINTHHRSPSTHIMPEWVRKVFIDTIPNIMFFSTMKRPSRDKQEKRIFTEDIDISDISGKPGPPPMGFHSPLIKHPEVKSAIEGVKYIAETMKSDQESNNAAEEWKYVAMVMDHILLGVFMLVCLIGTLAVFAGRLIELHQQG
Mouse muscle embryonic nAChR, Thr α150, Leu9′Ser mutation in M2 of the β subunit, sequence (P09690 24-501 L285S): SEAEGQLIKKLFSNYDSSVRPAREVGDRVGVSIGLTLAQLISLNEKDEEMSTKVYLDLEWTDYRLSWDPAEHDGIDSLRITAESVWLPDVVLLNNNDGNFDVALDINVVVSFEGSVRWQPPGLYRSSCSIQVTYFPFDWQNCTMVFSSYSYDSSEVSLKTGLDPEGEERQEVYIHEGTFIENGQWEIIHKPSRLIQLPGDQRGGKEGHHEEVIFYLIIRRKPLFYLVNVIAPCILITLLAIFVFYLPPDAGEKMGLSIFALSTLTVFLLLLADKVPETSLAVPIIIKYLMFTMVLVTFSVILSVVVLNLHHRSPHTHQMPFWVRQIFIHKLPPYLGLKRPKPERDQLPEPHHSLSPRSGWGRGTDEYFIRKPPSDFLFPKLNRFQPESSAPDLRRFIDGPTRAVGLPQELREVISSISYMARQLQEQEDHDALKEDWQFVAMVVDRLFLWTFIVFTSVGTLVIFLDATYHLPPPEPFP
Mouse muscle embryonic nAChR, Thr α150, Leu9′Ser mutation in M2 of the β subunit, sequence (P04760 23-519): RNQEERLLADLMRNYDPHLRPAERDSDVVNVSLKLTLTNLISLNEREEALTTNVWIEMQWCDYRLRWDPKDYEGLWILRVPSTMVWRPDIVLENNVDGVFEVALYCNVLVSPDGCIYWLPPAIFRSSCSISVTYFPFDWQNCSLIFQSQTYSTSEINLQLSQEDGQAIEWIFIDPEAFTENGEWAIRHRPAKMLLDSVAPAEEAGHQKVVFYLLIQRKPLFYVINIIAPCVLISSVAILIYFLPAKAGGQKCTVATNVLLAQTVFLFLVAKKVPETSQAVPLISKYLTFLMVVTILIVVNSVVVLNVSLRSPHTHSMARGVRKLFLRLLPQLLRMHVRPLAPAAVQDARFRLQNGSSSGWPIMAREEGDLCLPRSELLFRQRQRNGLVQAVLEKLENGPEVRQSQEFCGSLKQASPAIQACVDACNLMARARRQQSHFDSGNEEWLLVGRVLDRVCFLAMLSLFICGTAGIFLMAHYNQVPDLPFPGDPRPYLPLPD
Mouse muscle embryonic nAChR, Thr α150, Leu9′Ser mutation in M2 of the β subunit, sequence (P02716 25-520): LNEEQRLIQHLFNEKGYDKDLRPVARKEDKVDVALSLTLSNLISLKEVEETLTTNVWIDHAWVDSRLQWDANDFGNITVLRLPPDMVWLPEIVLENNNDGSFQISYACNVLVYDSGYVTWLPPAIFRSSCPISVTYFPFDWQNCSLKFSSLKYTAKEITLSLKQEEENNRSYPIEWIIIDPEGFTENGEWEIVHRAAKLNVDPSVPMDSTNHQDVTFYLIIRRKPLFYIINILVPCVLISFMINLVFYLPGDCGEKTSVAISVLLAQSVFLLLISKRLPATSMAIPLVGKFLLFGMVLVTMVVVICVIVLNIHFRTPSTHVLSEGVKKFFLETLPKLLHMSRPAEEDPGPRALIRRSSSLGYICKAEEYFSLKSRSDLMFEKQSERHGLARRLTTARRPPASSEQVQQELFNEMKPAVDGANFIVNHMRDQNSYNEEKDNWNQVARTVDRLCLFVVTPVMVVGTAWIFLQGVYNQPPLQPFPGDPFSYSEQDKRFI
Description: as §1, §2
To evaluate this possibility, the backbone amide at this position was converted to an ester by replacing Thr α150 with the analog α-hydroxy threonine (Tah) using the nonsense suppression methodology (FIG. 9a). Converting an amide carbonyl to an ester carbonyl weakens the hydrogen bonding ability of the oxygen, an effect that has been estimated to be worth ˜[…] (Koh, J. T., et al. (1997) Biochem. 36:11314-22). […]

[4] = target: T1, Mouse muscle embryonic nAChR, Tah α150 (ester carbonyl of Trp α149), Leu9′Ser mutation in M2 of the β subunit (Mus musculus, UniProt P02716+P04756+P04760); assay type: cell-based; conditions: read-out: EC50, Tah at α150
T1 construct: other: ± standard error of the mean; backbone ester; β Leu9′Ser; Mouse muscle embryonic nAChR in the pAMV vector was used
T1 sequence (P02716 25-520 limits assumed, change not shown): as the sequence (P02716 25-520) above
T1 sequence (P04756 21-457 limits assumed, change not shown): as the sequence (P04756 21-457) above
T1 sequence (P04760 23-519 limits assumed, change not shown): as the sequence (P04760 23-519) above
Description: as §1, §2, §3, §4, §5

Which “Epi concentrations required by 4,5,6,7-F4-Trp α149 mutant (dose-response unsuccessful)” value [1] does the source give for `Clc1ccc(C2CC3CCC2N3)cn1` (racemic) [Epi, epibatidine] here?
The value was “above 100 μM”.

What about the “drop in hydrogen bonding strength” value ([2]; Tah/Thr ratio multiplied by generic 3.3-fold decrease seen with ACh) of the same molecule?
Its value is ~12 fold.

And the “energy corresponding to drop in hydrogen bonding strength” value ([2]; from corrected fold change)?
The value was 1.5 kcal/mol.

How did the EC50 [3] turn out when `CN1CCCC1c1cccnc1` (centres unmarked) [Nic, nicotine] was run?
Its EC50 is 57 ± 2 µM.

What about the EC50 [4] of the same molecule?
The EC50 was 92 ± 4 µM.

What about the “Tah/Thr (fold increase in EC50 upon ester substitution)” value [2] of the same molecule?
The value was 1.6.

And the “drop in hydrogen bonding strength” value [2]?
The value was ~5 fold.

And the “energy corresponding to drop in hydrogen bonding strength” value [2]?
Its value is 1.0 kcal/mol.
